Assay results as given in the OligoGym collection.
Several values for one entry are separate records, joined by “and”; a condition that tells them apart may be missing. Equal entries are not always repeated. After the bases stand the sugars from the 5' end (letter, count) and the backbone: PS all phosphorothioate, else s phosphorothioate and o phosphodiester by linkage. Methylation of C is not given here. e = 2'-O-(2-methoxyethyl) (MOE); k = constrained ethyl (cEt); d = 2'-deoxy (DNA); m = 2'-O-methyl

Target: HSD17B13
Details: ASO, HepaRG

Sequence | target mRNA inhibition (1 µM) | other results
GCTAGTGCCAAACCAA (sugars kkdddddddddkekek, PS) | 62% | –
ATGTUTATGTAAGCAC (sugars k3 d1 m1 d8 k3, PS) | 45% | –
GAGTTGCACCGTTTTG (sugars k3 d9 k3 e1, PS) | 62% | –
CTCCATCATCGATGGA (sugars k3 d10 k3, PS) | 0% | –
GAACAGTCTTAAACCT (sugars k3 d1 m1 d8 k3, PS) | 75% | target mRNA inhibition (0.02 µM): 0%; target mRNA inhibition (0.078 µM): 24%; target mRNA inhibition (0.313 µM): 53%; target mRNA inhibition (1.25 µM): 66%; target mRNA inhibition (5 µM): 69%
AGAGUTGCACCGTTTT (sugars k3 d1 m1 d8 k3, PS) | 68% | –
TGCAUCTTAAGATACC (sugars k3 d1 m1 d8 k3, PS) | 51% | –
ACGGTGATCAAATGTA (sugars kkdddddddddkekek, PS) | 33% | –
TCTGGGACCAAGGATA (sugars k3 d9 k3 e1, PS) | 57% | –
ACAGATTGGAATGCTA (sugars k3 d10 k3, PS) | 50% | –
ATGAAGTTAGTATAGT (sugars kkdddddddddkekek, PS) | 34% | –
TATCAATGCCTTAGCC (sugars k3 d10 k3, PS) | 15% | –
GCCTTTTAACTACCCT (sugars k3 d10 k3, PS) | 0% | –
AGCTTTTGTCCACCTT (sugars k3 d9 k3 e1, PS) | 69% | –
GTGTTTACAAGTAAGA (sugars k3 d10 k3, PS) | 79% | –
CGGTCACCTTTCATAA (sugars k3 d10 k3, PS) | 69% | –
TGTTACATCACCCACT (sugars k3 d10 k3, PS) | 35% | –
GAACAGTCTTAAACCT (sugars kkdddddddddkekek, PS) | 63% | –
TTACAACCTGGTTTCA (sugars k3 d10 k3, PS) | 25% | –
GAAACTTGATCTCTTA (sugars k3 d1 m1 d8 k3, PS) | 59% | –
GCCAACAGCGGCAAAT (sugars k3 d10 k3, PS) | 30% | –
TATACTGTCCCAGCAT (sugars k3 d10 k3, PS) | 40% | –
TGGCCTTACCAGAATT (sugars k3 d10 k3, PS) | 46% | –
ATGCUACTTGAACAGT (sugars k3 d1 m1 d8 k3, PS) | 46% | –
ATTATGTGATTGAGTT (sugars k3 d10 k3, PS) | 46% | –

Sequence | target mRNA inhibition (1 µM) | other results
AATCGCTGCTTAGTTC (sugars k3 d10 k3, PS) | 41% | –
AAGGATTTCTAGGATG (sugars k3 d10 k3, PS) | 71% | –
TCTAAACATCTCTGGG (sugars k3 d10 k3, PS) | 40% | –
ATGCATTAAAACTCTC (sugars k3 d10 k3, PS) | 12% | –
CTTAAGGATCATTGCA (sugars k3 d10 k3, PS) | 29% | –
AATAATAGCTCTATTG (sugars kkdddddddddkekek, PS) | 2% | –
AAACATAGGCTTAGTG (sugars k3 d10 k3, PS) | 16% | –
TTACATTACAGCCTTA (sugars k3 d10 k3, PS) | 67% | target mRNA inhibition (0.02 µM): 0%; target mRNA inhibition (0.078 µM): 0%; target mRNA inhibition (0.313 µM): 19%; target mRNA inhibition (1.25 µM): 56%; target mRNA inhibition (5 µM): 80%
ACATATGGTGTACACT (sugars k3 d10 k3, PS) | 19% | –
GAAGTGATCCATATTC (sugars k3 d10 k3, PS) | 44% | –
ATATAGCCCTTTCCCC (sugars k3 d10 k3, PS) | 26% | –
TCACATATGTGAAGAG (sugars k3 d10 k3, PS) | 27% | –
CTCTTAGCTGTGCACT (sugars kkdddddddddkekek, PS) | 56% | –
GGTTTTGATACCAGTT (sugars k3 d10 k3, PS) | 58% | –
AGACCTCTGTGAAAGC (sugars k3 d10 k3, PS) | 50% | –
GGCCAAGGGAACACTG (sugars k3 d10 k3, PS) | 36% | –
TAATACATTAGCAAGC (sugars k3 d10 k3, PS) | 33% | –
ACTTCTTACGACTTCA (sugars k3 d10 k3, PS) | 43% | –
GCTAGGGAAATCTTTC (sugars k3 d10 k3, PS) | 66% | –
TCCAUAATAATAGCTC (sugars k3 d1 m1 d8 k3, PS) | 58% | –
GATGTTGACCTCAAAT (sugars k3 d10 k3, PS) | 0% | –
TCTATTAGTTGGCCTG (sugars k3 d10 k3, PS) | 26% | –
GATTAATTCCCTTCCA (sugars k3 d10 k3, PS) | 30% | –
CCATTTACATATGGTG (sugars k3 d10 k3, PS) | 28% | –
CAAACTGCTACTGTGT (sugars k3 d10 k3, PS) | 57% | –

Sequence | target mRNA inhibition (1 µM) | other results
CTTACGACAGGTCATC (sugars k3 d10 k3, PS) | 39% | –
TTTTAACTACCCTCAC (sugars k3 d10 k3, PS) | 2% | –
TCCAGTAAAAAATTGG (sugars k3 d10 k3, PS) | 12% | –
CAGCAAAGTTTGGGCA (sugars k3 d10 k3, PS) | 37% | –
GCCATAATCTGTGATT (sugars k3 d10 k3, PS) | 0% | –
TTCAACTAAACATGAC (sugars k3 d10 k3, PS) | 55% | –
TCTCTTAGCTGTGCAC (sugars k3 d10 k3, PS) | 79% | target mRNA inhibition (0.02 µM): 15%; target mRNA inhibition (0.078 µM): 30%; target mRNA inhibition (0.313 µM): 52%; target mRNA inhibition (1.25 µM): 74%; target mRNA inhibition (5 µM): 89%
ATAACTACAAGAGGTT (sugars kkdddddddddkekek, PS) | 46% | –
GATGAGAGTCTTTCTT (sugars k3 d10 k3, PS) | 26% | –
CTATCAACCTGCACAC (sugars k3 d10 k3, PS) | 39% | –
GTAATAGCCAGTACAG (sugars k3 d10 k3, PS) | 77% | target mRNA inhibition (0.02 µM): 0%; target mRNA inhibition (0.078 µM): 9%; target mRNA inhibition (0.313 µM): 45%; target mRNA inhibition (1.25 µM): 69%; target mRNA inhibition (5 µM): 84%
TCTATTGATTGGCTTA (sugars k3 d10 k3, PS) | 39% | –
CCTATGCAAATTCATA (sugars k3 d10 k3, PS) | 34% | –
TTTAGTTAGAATAGTC (sugars k3 d10 k3, PS) | 15% | –
ATTCACCACGATTGTT (sugars k3 d10 k3, PS) | 0% | –
ATGATAATTTGGTGTC (sugars k3 d10 k3, PS) | 55% | –
AAATATGTCCAGGTTG (sugars k3 d1 m1 d8 k3, PS) | 63% | –
AAAGTTCATTCGAATT (sugars k3 d10 k3, PS) | 63% | –
TAATTGCATCTGCTCG (sugars k3 d10 k3, PS) | 46% | –
GTTTCCTCCACACCGC (sugars k3 d10 k3, PS) | 45% | –
GTAGGAGTAGATGATG (sugars k3 d10 k3, PS) | 7% | –
CCATGGATCTAGAACA (sugars k3 d10 k3, PS) | 15% | –
AGTAATCAGTTTTCCT (sugars k3 d10 k3, PS) | 65% | –
TAATAGCCAGTACAGT (sugars k3 d10 k3, PS) | 64% | –
CACGATTGTTACATCA (sugars k3 d10 k3, PS) | 37% | –

Sequence | target mRNA inhibition (1 µM) | other results
CGTTTGACTGCTGCTA (sugars k3 d9 k3 e1, PS) | 75% and 50% | target mRNA inhibition (0.02 µM): 4%; target mRNA inhibition (0.078 µM): 17%; target mRNA inhibition (0.313 µM): 34%; target mRNA inhibition (1.25 µM): 57%; target mRNA inhibition (5 µM): 66%
TGGAATGCTACTTGAA (sugars k3 d1 m1 d8 k3, PS) | 79% | target mRNA inhibition (0.02 µM): 13%; target mRNA inhibition (0.078 µM): 27%; target mRNA inhibition (0.313 µM): 35%; target mRNA inhibition (1.25 µM): 66%; target mRNA inhibition (5 µM): 91%
ATCTCTGGGACCAAGG (sugars k3 d10 k3, PS) | 72% | target mRNA inhibition (0.02 µM): 0%; target mRNA inhibition (0.078 µM): 0%; target mRNA inhibition (0.313 µM): 57%; target mRNA inhibition (1.25 µM): 78%; target mRNA inhibition (5 µM): 93%
CATAACTTCATAGTGG (sugars kkdddddddddkekek, PS) | 15% | –
TTAAGATACCCAGGTT (sugars k3 d1 m1 d8 k3, PS) | 30% | –
CATCCCCTAAGTTATT (sugars k3 d10 k3, PS) | 24% | –
TATACTAGGATTAGAA (sugars k3 d10 k3, PS) | 2% | –
CTTACCTTGTGCTTGG (sugars k3 d10 k3, PS) | 34% | –
CGGCAAATTTGCTGGA (sugars k3 d10 k3, PS) | 29% | –
GTAGATGATGGTGATC (sugars k3 d10 k3, PS) | 36% | –
TATTCCCAACGCAACA (sugars k3 d10 k3, PS) | 62% | –
AAACTTGATCTCTTAG (sugars k3 d10 k3, PS) | 61% | –
TTGAATAGCAAGCCAA (sugars k3 d9 k3 e1, PS) | 33% | –
GACTGTTGAGCTCAAA (sugars k3 d10 k3, PS) | 52% | –
AGAGGCTAGGGAAATC (sugars kkdddddddddkekek, PS) | 59% | –
CATGAAGATTAGTTAA (sugars k3 d10 k3, PS) | 11% | –
GAAGAAGTGCTTTTGT (sugars k3 d10 k3, PS) | 50% | –
CATTATAAGCTAACTA (sugars k3 d10 k3, PS) | 39% | –
TAAGCAGAATTGTGAA (sugars k3 d10 k3, PS) | 35% | –
AATCAGTTTTCCTCAT (sugars k3 d10 k3, PS) | 53% | –
CCAGGTTGAGATAAAG (sugars k3 d1 m1 d8 k3, PS) | 49% | –
GCATGGCTACAGATTG (sugars k3 d9 k3 e1, PS) | 67% | –
TTACATATCAATGCCT (sugars k3 d10 k3, PS) | 12% | –
